Data taken from patent publication US20260285850A1, “SUBSTITUTED OXAZOLIDINONES AND IMIDAZOLINONES AS HERBICIDES” (FMC CORPORATION, priority 2023, published 2026).

Assays:
Assay type in all cases: in vivo
[1] = system: barnyardgrass (Echinochloa crusgalli); assay: Test B flooded paddy test, visual plant response rating 0-100; settings: 250 g ai/ha, Flood, applied to paddy water, evaluated after 13 days
Procedure, shortened: (§1)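 Visual scores versus untreated controls were recorded 13 days after treatment of greenhouse-held plants. At the 2-leaf stage, pots were flooded 3 cm above the soil surface and compounds added straight to the water.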

[2] = system: sedge, umbrella (small-flower umbrella sedge, Cyperus difformis); assay: as above; settings: 250 g ai/ha, Flood, applied to paddy water, evaluated after 13 days
Procedure, shortened: as §1

rice (Oryza sativa) = assay: as above; settings: 250 g ai/ha, Flood, applied to paddy water, evaluated after 13 days
Procedure, shortened: as §1

[3] = system: ducksalad (Heteranthera limosa); assay: as above; settings: 250 g ai/ha, Flood, applied to paddy water, evaluated after 13 days
Procedure, shortened: as §1

[4] = system: wheat (Triticum aestivum); assay: Test A preemergence soil spray, visual injury rating 0-100; settings: 10 days
Procedure, shortened: (§2)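 Plants were grown in a loam soil-sand blend and treated with test chemical in a non-phytotoxic solvent mixture containing surfactant, either sprayed on soil preemergence or applied postemergence to 2-10 cm plants. After 10 days in a greenhouse, injury was scored visually against untreated controls, 0 meaning no effect and 100 complete control.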

soybean (Glycine max) [5] = assay: as above; settings: 62 g ai/ha, 10 days, 0 = no effect, 100 = complete control
Procedure, shortened: as §2

[6] = system: blackgrass (Alopecurus myosuroides); assay: as above; settings: 10 days
Procedure, shortened: as §2

[7] = system: oat, wild (wild oat, Avena fatua); assay: as above; settings: 10 days
Procedure, shortened: as §2

[8] = system: green foxtail (Setaria viridis); assay: as above; settings: 10 days
Procedure, shortened: as §2

[9] = system: barnyardgrass (Echinochloa crus-galli); assay: as above; settings: 10 days
Procedure, shortened: as §2

[10] = system: ragweed (common ragweed, Ambrosia artemisiifolia); assay: as above; settings: 10 days
Procedure, shortened: as §2

[11] = system: ryegrass, Italian (italian ryegrass, Lolium multiflorum); assay: as above; settings: 10 days
Procedure, shortened: as §2

kochia (Bassia scoparia) [12] = assay: as above; settings: 10 days
Procedure, shortened: as §2

corn (Zea mays) [13] = assay: as above; settings: 10 days
Procedure, shortened: as §2

[14] = system: galium (catchweed bedstraw, Galium aparine); assay: Test A postemergence application, visual injury rating 0-100
Procedure, shortened: as §2

[15] = system: wheat (Triticum aestivum); assay: as above
Procedure, shortened: as §2

soybean (Glycine max) [16] = assay: as above
Procedure, shortened: as §2

[17] = system: blackgrass (Alopecurus myosuroides); assay: as above
Procedure, shortened: as §2

[18] = system: horseweed (Erigeron canadensis); assay: as above
Procedure, shortened: as §2

[19] = system: oat, wild (wild oat, Avena fatua); assay: as above
Procedure, shortened: as §2

[20] = system: green foxtail (Setaria viridis); assay: as above
Procedure, shortened: as §2

[21] = system: barnyardgrass (Echinochloa crus-galli); assay: as above
Procedure, shortened: as §2

[22] = system: ragweed (common ragweed, Ambrosia artemisiifolia); assay: as above
Procedure, shortened: as §2

[23] = system: palmer (palmer amaranth, palmer pigweed, Amaranthus palmeri); assay: as above
Procedure, shortened: as §2

[24] = system: ryegrass, Italian (italian ryegrass, Lolium multiflorum); assay: as above
Procedure, shortened: as §2

kochia (Bassia scoparia) [25] = assay: as above
Procedure, shortened: as §2

corn (Zea mays) [26] = assay: as above
Procedure, shortened: as §2

[27] = 62 g ai/ha, 0 = no effect, 100 = complete control
[28] = 62 g ai/ha, postemergence, 10 days, 0 = no effect, 100 = complete control
[29] = Postemergence, 16 g ai/ha, greenhouse 10 days, 0 no effect, 100 complete control

CC1(C(=O)NC2CC=C(C(=O)OCC(F)(F)F)C2)CN(c2cc(F)cc(Cl)c2)C(=O)O1 (stereo not shown) [Compound 142]
0: Plant response rating, Barnyardgrass (0 to 100 scale, 0 is no effect and 100 is complete control) [1] | Plant response rating, Sedge, Umbrella (0 to 100 scale, 0 is no effect and 100 is complete control) [2] | Plant response rating, Rice (0 to 100 scale, 0 is no effect and 100 is complete control) (rice (Oryza sativa)) | Plant response rating, Ducksalad (0 to 100 scale, 0 is no effect and 100 is complete control) [3] | Wheat plant response rating ([4]; 16 g ai/ha, 0 to 100 scale) | Wheat plant response rating (0-100) [4, 27] | Soybean plant response rating (0-100) (soybean (Glycine max) [5]) | Blackgrass plant response rating ([6]; 16 g ai/ha, 0 to 100 scale) | Blackgrass plant response rating (0-100) [6, 27] | Oat, Wild plant response rating ([7]; 16 g ai/ha, 0 to 100 scale) | Oat, Wild plant response rating (0-100) [7, 27] | Foxtail, Green plant response rating ([8]; 16 g ai/ha, 0 to 100 scale) | Foxtail, Green plant response rating (0-100) [8, 27] | Barnyardgrass plant response rating ([9]; 16 g ai/ha, 0 to 100 scale) | Barnyardgrass plant response rating (0-100) [9, 27] | Ragweed plant response rating ([10]; 16 g ai/ha, 0 to 100 scale) | Ragweed plant response rating (0-100) [10, 27] | Ryegrass, Italian plant response rating ([11]; 16 g ai/ha, 0 to 100 scale) | Ryegrass, Italian plant response rating (0-100) [11, 27] | Kochia plant response rating (kochia (Bassia scoparia) [12]; 16 g ai/ha, 0 to 100 scale) | Kochia plant response rating (0-100) (kochia (Bassia scoparia) [12]; [27]) | Corn plant response rating (corn (Zea mays) [13]; 16 g ai/ha, 0 to 100 scale) | Corn plant response rating (0-100) (corn (Zea mays) [13]; [27]) | Galium plant response rating (0-100) [14, 28] | Galium plant response rating (0 to 100 scale) [14, 29] | Wheat plant response rating (0-100) [15, 28] | Wheat plant response rating (0 to 100 scale) [15, 29] | Soybean plant response rating (0-100) (soybean (Glycine max) [16]; [28]) | Soybean plant response rating (0 to 100 scale) (soybean (Glycine max) [16]; [29]) | Blackgrass plant response rating (0-100) [17, 28] | Blackgrass plant response rating (0 to 100 scale) [17, 29] | Horseweed plant response rating (0-100) [18, 28] | Horseweed plant response rating (0 to 100 scale) [18, 29] | Oat, Wild plant response rating (0-100) [19, 28] | Oat, Wild plant response rating (0 to 100 scale) [19, 29] | Foxtail, Green plant response rating (0-100) [20, 28] | Foxtail, Green plant response rating (0 to 100 scale) [20, 29] | Barnyardgrass plant response rating (0-100) [21, 28] | Barnyardgrass plant response rating (0 to 100 scale) [21, 29] | Ragweed plant response rating (0-100) [22, 28] | Ragweed plant response rating (0 to 100 scale) [22, 29] | Pigweed, Palmer plant response rating (0-100) [23, 28] | Pigweed, Palmer plant response rating (0 to 100 scale) [23, 29] | Ryegrass, Italian plant response rating (0-100) [24, 28] | Ryegrass, Italian plant response rating (0 to 100 scale) [24, 29] | Kochia plant response rating (0-100) (kochia (Bassia scoparia) [25]; [28]) | Kochia plant response rating (0 to 100 scale) (kochia (Bassia scoparia) [25]; [29]) | Corn plant response rating (0-100) (corn (Zea mays) [26]; [28]) | Corn plant response rating (0 to 100 scale) (corn (Zea mays) [26]; [29])
